One block for each compound: values may come before it.
Legend:
IMR-32 (Neuroblastoma) = assay: Clonogenicity of established tumor cell lines (soft agar); assay type: cell-based, human; details: Homo sapiens; IMR-32 clonogenicity
Description: (§1) Inhibition of tumor growth was tested using cell lines as follows: […]

K562 (Erytholeukemia) = assay: as above; assay type: cell-based, human; details: Homo sapiens; K562 clonogenicity
Description: as §1

LA1-5S (Neuroblastoma) = assay: as above; assay type: cell-based, human; details: Homo sapiens; LA1-5S clonogenicity
Description: as §1

[1] = system: LNCaP (Prostate Carcinoma); assay: as above; assay type: cell-based, human; details: Homo sapiens; LNCaP clonogenicity
Description: as §1

[2] = system: MCF7-40F (Breast Carcinoma); assay: as above; assay type: cell-based, human; details: Homo sapiens; MCF7-40F clonogenicity
Description: as §1

[3] = system: MCF7-WT (Breast Carcinoma); assay: as above; assay type: cell-based, human; details: Homo sapiens; MCF7-WT clonogenicity
Description: as §1

NBAS-5 (Neuroblastoma) = assay: as above; assay type: cell-based, human; details: Homo sapiens; NBAS-5 clonogenicity
Description: as §1

NBL-W-N (Neuroblastoma) = assay: as above; assay type: cell-based, human; details: Homo sapiens; NBL-W-N clonogenicity
Description: as §1

PC3 (Prostate Carcinoma) = assay: as above; assay type: cell-based, human; details: Homo sapiens; PC3 clonogenicity
Description: as §1

SK-N-MC (Neuroblastoma) = assay: as above; assay type: cell-based, human; details: Homo sapiens; SK-N-MC clonogenicity
Description: as §1

SK-N-SH (Neuroblastoma) = assay: as above; assay type: cell-based, human; details: Homo sapiens; SK-N-SH clonogenicity
Description: as §1

SMS-KAN (Neuroblastoma) = assay: as above; assay type: cell-based, human; details: Homo sapiens; SMS-KAN clonogenicity
Description: as §1

[4] = system: 53 primary tumor cell lines; assay: Inhibition of clonogenicity of primary tumor cells; assay type: cell-based, human; details: Homo sapiens
Excerpt: The tested tumor cells were from 11 non-small cell lung carcinomas, 10 breast carcinomas, 10 gastric carcinomas, 10 ovarian carcinomas, and 10 CNS tumors.

[5] = system: established tumor cell lines; assay: Clonogenicity of established tumor cell lines, all lines together; assay type: cell-based, human; details: in words
Description: as §1

[6] = system: P3HR-1 EBV-positive lymphoma cells; assay: [3H]-thymidine incorporation in EBV-positive lymphoma cells; assay type: cell-based, human; details: combination with GC, 72 hours
Description: The effect of GOMB to AB was compared on EBV virus-associated tumors. EBV-positive cells from P3HR-1, a human lymphoma cell line, were incubated in growth medium with the specified concentration of GOMB, AB, ganciclovir (GC), or combination of these, for 72 hours, seeded in 96-well plates and pulsed with 1 μCi [^3 H]-thymidine/well during the last 16 hours of exposure to the compounds. Cells were harvested with a cell harvester, using glass microfiber filters. The incorporation of [^3 H]-thymidine was determined by retention of the acid insoluble fraction on filters and is expressed as CPM.

[7] = system: Au565 breast carcinoma cells; assay: Differentiation by lipid staining; assay type: cell-based, human; details: 10 μM
Excerpt: Lipid staining and/or immunochemical staining of casein can be used as a marker for cellular differentiation of breast cancer cells (Bacus et al., Md. Carcin. 3:350-362, 1990). Casein detection can be done by histochemical staining of breast cancer cells using a human antibody to human casein as described by Cheung et al., J. Clin. Invest. 75:1722-1728,which is incorporated by reference in its entirety.
In the case of the human breast carcinoma cell line Au565, 100%. Of the cells treated with 10 μM GOMB were positive for lipid staining whereas less than 1% of cells treated with the same concentration of AB were positive for lipid staining.

CFPAC cells = assay: SRB cell proliferation assay; assay type: cell-based
Description: (§2) The inhibition of cell proliferation was measured in the indicated cancer cell lines using the sulforhoamine B (SRB) assay as described by Monks et al., J. Natl. Can. Inst. […] The SRB assay is used to screen for anti-cancer drugs.

HL-60 cells = assay: SRB cell proliferation assay; assay type: cell-based; details: Homo sapiens; HL-60, SRB
Description: as §2

HT-29 cells = assay: SRB cell proliferation assay; assay type: cell-based; details: Homo sapiens; HT-29, SRB
Description: as §2

MCF7 cells = assay: SRB cell proliferation assay; assay type: cell-based; details: Homo sapiens
Description: as §2

MCF-7 cells (WAF) = assay: Apoptosis in breast cancer cells, staining with WAF antibody / Western blot; assay type: cell-based, human; details: 100 μM
Description: Induction of apoptosis by COMB and AB in MCF-7 cells was evaluated by staining cells with the WAF antibody and by Western blot analysis as described by Bacus et al., 1996, Oncogene 12:2535-2547.

K562 cells (HbF) [8] = assay: Hb-containing K562 cells by benzidine staining; assay type: cell-based, human; details: 0.05 mM, 5 days
Description: Hb Measurement: HB was measured by benzidine staining of K562 cells after 5 days exposure to GOMB or AB according to the procedure of Fibach et al. (1989) [full cite]. Quantitative measurement of HbF in K562 culture or human erythroid cultures was determined by ion-exchange high pressure liquid chromatography (HPLC) as described by Fibach et al., Blood 81:1630-1635, 1993.
(§3) K562 cells: K562 is an erthroblast cell line that develops some properties of erythroid, megakaryocyte or monocyte cells, depending on the specific stimulus, when induced by different chemicals. K562 cells were grown in RPMI with 10% FCS, supplemented with 2 mM glutamine. Cells were incubated at 37° C. in a humidified, 5% CO2 incubator.

K562 cells (HbF) [9] = assay: HbF synthesis in K562 cells (ion-exchange HPLC); assay type: cell-based, human
Description: as §3

[10] = system: β-thalassemia and sickle-cell anemia; details: β-globin disorders; cited from earlier work

SMILES: CCCC(=O)O [AB, arginine butyrate, reference compound]
- IC50 (IMR-32 (Neuroblastoma)): 881 µM
- IC90 (IMR-32 (Neuroblastoma)): 3570 µM
- IC50 (K562 (Erytholeukemia)): 772 µM
- IC50 (LA1-5S (Neuroblastoma)): 1630 µM
- IC90 (LA1-5S (Neuroblastoma)): 2680 µM
- IC50 [1]: 780 µM
- IC90 [1]: 6700 µM
- IC50 [2]: 817 µM
- IC90 [2]: 3180 µM
- IC50 [3]: 1500 µM
- IC90 [3]: 9470 µM
- IC50 (NBAS-5 (Neuroblastoma)): 883 µM
- IC90 (NBAS-5 (Neuroblastoma)): 13000 µM
- IC50 (NBL-W-N (Neuroblastoma)): 489 µM
- IC90 (NBL-W-N (Neuroblastoma)): 3070 µM
- IC50 (PC3 (Prostate Carcinoma)): 226 µM
- IC50 (SK-N-MC (Neuroblastoma)): 215 µM
- IC90 (SK-N-MC (Neuroblastoma)): 1310 µM
- IC50 (SK-N-SH (Neuroblastoma)): 998 µM
- IC90 (SK-N-SH (Neuroblastoma)): 3400 µM
- IC50 (SMS-KAN (Neuroblastoma)): 1140 µM
- IC90 (SMS-KAN (Neuroblastoma)): 2080 µM
- IC90 [4]: 2120 µM
- inhibition of cell proliferation, dose dependence [5]: inhibit cell proliferation in a dose-dependent manner
- interaction with ganciclovir (GC) in inhibiting proliferation [6]: interact synergistically with GC
- cells positive for lipid staining [7]: less than 1%
- IC50 (CFPAC cells): > 4000 µM
- IC90 (CFPAC cells): > 4000 µM
- IC50 (HL-60 cells): 1640 µM
- IC90 (HL-60 cells): 3460 µM
- IC50 (HT-29 cells): > 4000 µM
- IC90 (HT-29 cells): > 4000 µM
- IC50 (MCF7 cells): > 4000 µM
- IC90 (MCF7 cells): > 4000 µM
- % Cells Expressing WAF (MCF-7 cells (WAF)): 23%
- Percentage K562 Cells Containing HbF (K562 cells (HbF) [8]): 3 ± 2%
- HbF Synthesis in K562 Cells (K562 cells (HbF) [9]; 0.01 mM): 0.96 µg/mL
- HbF Synthesis in K562 Cells (K562 cells (HbF) [9]; 0.05 mM): 0.95 µg/mL
- HbF Synthesis in K562 Cells (K562 cells (HbF) [9]; 0.10 mM): 1.8 µg/mL
- HbF Synthesis in K562 Cells (K562 cells (HbF) [9]; 0.50 mM): 3.69 µg/mL
- clinical efficacy [10]: moderate efficacy

- IC50 (HL-60 cells): 39 µM
- IC90 (HL-60 cells): 59.9 µM
- IC50 (HT-29 cells): 144 µM
- IC90 (HT-29 cells): 231 µM
- IC50 (MCF7 cells): 180 µM
- IC90 (MCF7 cells): 238 µM
SMILES: CCCC(=O)OCOC(=O)C(C)(C)C [AN-9, pivaloyloxymethyl butyrate]
- IC50 (CFPAC cells): 55.9 µM
- IC90 (CFPAC cells): 89.8 µM

Reference: patent publication US6130248A, “Tricarboxylic acid-containing oxyalkyl esters and uses thereof” (Bar-ILAn University, priority 1996, dated 2000)
